Experimental data taken from ChEMBL document CHEMBL4342522 (J Med Chem, 2020).
pIC50, pKi: −log10 of the molar value.

How the values were obtained:
[1] = biological target: T1, Bromodomain-containing protein 4 (Homo sapiens, UniProt O60885); experiment: biochemical; assay type: cell-based
Description: Inhibition of human N-terminal His6 tagged BRD4 BD1 (57 to 168) residues expressed in Escherichia coli BL21(DE3) cells after 1 hr by TR-FRET assay

[2] = biological target: T1, Bromodomain-containing protein 4; experiment: Inhibition of human N-terminal His6 tagged BRD4 BD2 (352 to 457) residues expressed in Escherichia coli BL21(DE3) cells after 1 hr by TR-FRET assay
[3] = system: SKM-1; experiment: Antiproliferative activity against human SKM1 cells assessed as reduction in cell viability after 5 days by CellTiter-Glo assay; assay type: functional, cell-based; settings: SKM-1, 120 h
[4] = system: NCI-H1299; experiment: Antiproliferative activity against human H1299 cells assessed as reduction in cell viability after 5 days by CellTiter-Glo assay; assay type: functional, cell-based; settings: NCI-H1299, 120 h
[5] = Unbound hepatic clearance in human liver microsomes; assay type: ADME, Microsome
[6] = Unbound hepatic clearance in mouse liver microsomes; assay type: ADME, Microsome
[7] = Unbound hepatic clearance in rat liver microsomes; assay type: ADME, Microsome
[8] = Permeability in dog MDCK cells by PAMPA; assay type: ADME, cell-based, Canis lupus familiaris; settings: read-out: permeability

| SMILES | pKi [1] | pKi [2] | pIC50 [3] | pIC50 [4] | CL free [5] | CL free [6] | CL free [7] | Papp [8] |
| --- | --- | --- | --- | --- | --- | --- | --- | --- |
| CCNC(=O)c1cc2c(-c3cc(S(C)(=O)=O)ccc3Nc3c(C)cccc3C)cn(C)c(=O)c2[nH]1 | 6.60 | 8.37 | 7.17 | 5.44 | 117 mL/min/kg | 483 mL/min/kg | 433 mL/min/kg | 3.59 ×10⁻⁶ cm/s |
| CCNC(=O)c1cc2c(-c3cc(S(=O)(=O)CC)ccc3Oc3c(C)cccc3Br)cn(C)c(=O)c2[nH]1 | 7.35 | 9.00 | 8.01 | 6.14 | 267 mL/min/kg | 1880 mL/min/kg | 1350 mL/min/kg | 10.5 ×10⁻⁶ cm/s |
| CCNC(=O)c1cc2c(-c3ccccc3Cc3c(C)cccc3C)cn(C)c(=O)c2[nH]1 | 5.68 | 7.60 | 6.82 | 5.38 | 5330 mL/min/kg | 38300 mL/min/kg | 21700 mL/min/kg | 3.81 ×10⁻⁶ cm/s |
| CCNC(=O)c1cc2c(-c3cc(NC(C)=O)ccc3Oc3c(C)cc(F)cc3C)cn(C)c(=O)c2[nH]1 | 7.05 | 8.96 | 7.85 | 5.80 | 183 mL/min/kg | 2330 mL/min/kg | 250 mL/min/kg | 1.06 ×10⁻⁶ cm/s |
| CCNC(=O)c1cc2c(-c3cc(S(=O)(=O)CC)ccc3Oc3ccc(F)cc3F)cn(C)c(=O)c2[nH]1 | 8.18 | 9.15 | 7.51 | 6.96 | 50 mL/min/kg | < 103 mL/min/kg | 188 mL/min/kg | 3.18 ×10⁻⁶ cm/s |
| CNC(=O)c1cc2c(-c3cc(C(C)(C)O)ccc3Oc3c(C)cc(F)cc3C)cn(C)c(=O)c2[nH]1 | 6.85 | 9.00 | 7.89 | 5.92 | 400 mL/min/kg | 550 mL/min/kg | 167 mL/min/kg | 0.55 ×10⁻⁶ cm/s |
| Cc1cc(F)cc(C)c1Oc1ccc(C(C)(C)O)cc1-c1cn(C)c(=O)c2[nH]c(C(=O)NC3(C)CC3(F)F)cc12 (stereo not drawn) | 6.11 | 8.70 | 7.18 | 5.54 | 1120 mL/min/kg | 3500 mL/min/kg | 1400 mL/min/kg | 0.76 ×10⁻⁶ cm/s |
| CCN(C)C(=O)c1cc2c(-c3cc(S(C)(=O)=O)ccc3Oc3ccc(F)cc3F)cn(C)c(=O)c2[nH]1 | 7.89 | 7.40 | 7.25 | 6.41 | 63.3 mL/min/kg | 288 mL/min/kg | 282 mL/min/kg | 16 ×10⁻⁶ cm/s |
| Cn1cc(-c2cc(S(C)(=O)=O)ccc2Oc2ccc(F)cc2F)c2cc(C(N)=O)[nH]c2c1=O | 8.07 | 8.92 | 8.00 | 6.22 | 76.7 mL/min/kg | < 120 mL/min/kg | < 68.3 mL/min/kg | 2.4 ×10⁻⁶ cm/s |
| CCNC(=O)c1cc2c(-c3cc(S(=O)(=O)CC)ccc3Oc3c(C)cccc3C#N)cn(C)c(=O)c2[nH]1 | 7.16 | 8.49 | 7.43 | 6.14 | 683 mL/min/kg | 817 mL/min/kg | 1530 mL/min/kg | 15.3 ×10⁻⁶ cm/s |
| CCNC(=O)c1cc2c(-c3cc(C(C)(C)O)ccc3Oc3c(C)cccc3C)cn(C)c(=O)c2[nH]1 | 6.80 | 9.22 | 7.96 | 5.92 | 617 mL/min/kg | 2830 mL/min/kg | 1080 mL/min/kg | 6.3 ×10⁻⁶ cm/s |
| CCNC(=O)c1cc2c(-c3cc(S(=O)(=O)CC)ccc3Oc3c(C)cc(Cl)cc3C)cn(C)c(=O)c2[nH]1 | 7.09 | 9.10 | 6.96 | 6.15 | 783 mL/min/kg | 2000 mL/min/kg | 1580 mL/min/kg | 1.46 ×10⁻⁶ cm/s |
| CCNC(=O)c1cc2c(-c3cc(S(=O)(=O)CC)ccc3Oc3ccccc3Cl)cn(C)c(=O)c2[nH]1 | 8.19 | 9.30 | 8.48 | 6.47 | 200 mL/min/kg | 1200 mL/min/kg | 1200 mL/min/kg | 13.8 ×10⁻⁶ cm/s |
| CCNC(=O)c1cc2c(-c3cc(S(=O)(=O)CC)ccc3Oc3c(C)cccc3C(F)F)cn(C)c(=O)c2[nH]1 | 6.80 | 8.68 | 7.62 | 6.06 | 75 mL/min/kg | 900 mL/min/kg | 200 mL/min/kg | 15.2 ×10⁻⁶ cm/s |
| Cc1cccc(C)c1Oc1ccc(C(C)(C)O)cc1-c1cn(C)c(=O)c2[nH]c(C(=O)NC(C)(C)C)cc12 | 6.66 | 8.96 | 7.85 | 5.85 | 783 mL/min/kg | 4330 mL/min/kg | 3000 mL/min/kg | 1.26 ×10⁻⁶ cm/s |
| CCNC(=O)c1cc2c(-c3cc(S(=O)(=O)C4CC4)ccc3Oc3c(C)cccc3C)cn(C)c(=O)c2[nH]1 | 7.42 | 9.22 | 7.70 | 6.14 | 300 mL/min/kg | 1720 mL/min/kg | 1780 mL/min/kg | 8.33 ×10⁻⁶ cm/s |
